Data published in patent US20160355483A1, “COMPOUND BINDING TO PPARG BUT NOT ACTING AS PROMOTER AND PHARMACEUTICAL COMPOSITION FOR TREATING PPARG-RELATED DISEASES CONTAINING SAME AS ACTIVE INGREDIENT” (Hyundai Pharm Co., Ltd., priority 2014, published 2016).

Target: T1, PPARG (peroxisome proliferator activated receptor-gamma), GST-PPARG-LBD (Homo sapiens, UniProt P37231)
T1 construct: 15 μL of 5 nM GST-PPARG-LBD and 5 nM Tb-GST-antibody were added; purchased Invitrogen PV4894
T1 sequence (P37231 238-503 limits assumed): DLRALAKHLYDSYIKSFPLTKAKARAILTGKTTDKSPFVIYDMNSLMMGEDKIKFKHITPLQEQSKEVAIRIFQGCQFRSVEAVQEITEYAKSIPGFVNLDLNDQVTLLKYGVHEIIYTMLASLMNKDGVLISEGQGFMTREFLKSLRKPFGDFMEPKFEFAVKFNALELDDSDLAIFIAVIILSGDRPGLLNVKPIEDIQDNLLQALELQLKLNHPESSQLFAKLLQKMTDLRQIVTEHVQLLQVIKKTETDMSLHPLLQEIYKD
Test: LanthaScreen TR-FRET PPARG Competitive Binding Assay
Design: key: “+” indicates the degree of the binding activity, and as the number of “+” increases, the binding activity is stronger; ++: “+” indicates the degree of the binding activity, and as the number of “+” increases, the binding activity is stronger; +++: “+” indicates the degree of the binding activity, and as the number of “+” increases, the binding activity is stronger; ++++: “+” indicates the degree of the binding activity, and as the number of “+” increases, the binding activity is stronger
Conditions: degree of binding activity
Outline: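 Ratio of 518 nm to 488 nm time-resolved emission after a 1 h room-temperature incubation, in competition format with GST-PPARG ligand-binding domain. Values are expressed as 100% minus compound-to-vehicle ratio and related to rosiglitazone binding.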

Row | Structure (SMILES) | Binding assay (1 μLM)
1 | O=C(NCc1ccncc1)c1ccc2c(c1)CCCN2Cc1ccc(-c2ccccc2C(=O)O)cc1 [Example 27, 4′-((6-((pyridine-4-ylmethyl)carbamoyl)-3,4-dihydroquinoline-1(2H)-yl)methyl)-[1,1′-biphenyl]-2-carboxylic acid] | +
2 | Cc1ccc([C@H](C)NC(=O)c2ccc3c(c2)CCCN3Cc2ccccc2-c2ccc(C(=O)O)cc2)cc1F [Example 154, (S)-2′-((6-((1-(3-fluoro-4-methylphenyl)ethyl)carbamoyl)-3,4-dihydroquinoline-1(2H)-yl)methyl)-[1,1′-biphenyl]-4-carboxylic acid] | +
3 | C[C@H](NC(=O)c1ccc2c(c1)CCCN2Cc1ccccc1-c1ccc(C(=O)O)cc1)c1ccccc1 [Example 152, (S)-2′-((6-((1-phenylethyl)carbamoyl)-3,4-dihydroquinoline-1 (2H)-yl)methyl)-[1,1′-biphenyl]-4-carboxylic acid] | ++
4 | C[C@H](NC(=O)c1ccc2c(c1)CCCN2Cc1cc(-c2ccccc2C(=O)O)ccc1F)c1ccc2ccccc2c1 [Example 137, (S)-4′-fluoro-3′-((6-((1-(naphthalene-2-yl)ethyl)carbamoyl)-3,4-dihydroquinoline-1(2)-yl)methyl)-[1,1′-biphenyl]-2-carboxylic acid] | ++++
5 | C[C@H](NC(=O)c1ccc2c(c1)CCCN2Cc1ccc(-c2ccccc2C(=O)O)cc1)c1c(F)cccc1F [Example 16, (S)-4′-((6-((1-(2,6-fluorophenyl)ethyl)carbamoyl)-3,4-dihydroquinoline-1 (2H)-yl)methyl)-[1,1′-biphenyl]-2-carboxylic acid] | +++
6 | O=C(NC1COc2ccccc2C1)c1ccc2c(c1)OCCN2Cc1ccc(-c2ccccc2C(=O)O)cc1 (stereo not shown) [Example 82] | +++
7 | NC(=O)c1ccccc1-c1ccc(CN2CCOc3cc(C(=O)NCc4ccccc4)ccc32)cc1 [Example 100, N-benzyl-4-((2′-carbamoyl-[1,1′-biphenyl]-4-yl)methyl)-3,4-dihydro-2H-benzo[b][1,4]oxazine-7-carboxamide] | ++
8 | O=C(NCc1ccccc1)c1ccc2c(c1)CCCN2Cc1ccc(-c2ccccc2C(=O)O)cc1 [Example 28, 4′-((6-(benzylcarbamoyl)-3,4-dihydroquinoline-1(2H)-yl)methyl)-[1,1′-biphenyl]-2-carboxylic acid] | ++++
9 | C[C@H](NC(=O)c1ccc2c(c1)OCCN2Cc1ccc(-c2ccccc2C(=O)O)cc1)c1ccc(Cl)cc1 [Example 64, (S)-4′-((7-((1-(4-chlorophenyl)ethyl)carbamoyl)-2H-benzo[b][1,4]oxazine-4(3H)-yl)methyl)-[1,1′-biphenyl]-2-carboxylic acid] | +
10 | Cc1ccc([C@H](C)NC(=O)c2ccc3c(c2)OCCN3Cc2ccccc2-c2ccc(C(N)=O)cc2)cc1F [Example 148, (S)-4-((4′-carbamoyl-[1,1′-biphenyl]-2-yl)methyl)-N-(1-(3-fluoro-4-methylphenyl)ethyl)-3,4-dihydro-2H-benzo[b][1,4]oxazine-7-carboxamide] | ++
11 | C[C@H](NC(=O)c1ccc2c(c1)OCCN2Cc1ccc(-c2ccccc2C(=O)O)cc1)c1c(F)cccc1F [Example 83, (S)-4′-((7-((1-(2,6-fluorophenyl)ethyl)carbamoyl)-2H-benzo[b][1,4]oxazine-4(3H)-yl)methyl)-[1,1′-biphenyl]-2-carboxylic acid] | ++
12 | COc1cccc(CNC(=O)c2ccc3c(c2)OCCN3Cc2ccc(-c3ccccc3C(=O)O)cc2)c1 [Example 72, 4′-((7-((3-methoxybenzyl)carbamoyl)-2H-benzo[b][1,4]oxazine-4(3H)-yl)methyl)-[1,1′-biphenyl]-2-carboxylic acid] | +
13 | C[C@H](NC(=O)c1ccc2c(c1)CCCN2Cc1ccc(-c2ccccc2C(=O)O)cc1)c1cccc(F)c1 [Example 17, (S)-4′-((6-((1-(3-fluorophenyl)ethyl)carbamoyl)-3,4-dihydroquinoline-1(2H)-yl)methyl)-[1,1′-biphenyl]-2-caboxylic acid] | +++
14 | C[C@H](NC(=O)c1ccc2c(c1)CCCN2Cc1cccc(-c2ccccc2C(N)=O)c1)c1ccc(C#N)cc1 [Example 122, (S)-1-((2′-carbamoyl-[1,1′-biphenyl]-3-yl)methyl)-N-(1-(4-cyanophenyl)ethyl)-1,2,3,4-tetrahydroquinoline-6-carboxamide] | ++
15 | COc1cccc([C@H](C)NC(=O)c2ccc3c(c2)CCCN3Cc2ccc(-c3ccccc3C(N)=O)cc2)c1 [Example 40, (S)-1-((2′-carbamoyl-[1,1′-biphenyl]-4-yl)methyl)-N-(1-(3-methoxyphenyl)ethyl)-1,2,3,4-tetrahydroquinoline-6-carboxamide] | +++
16 | C[C@H](NC(=O)c1ccc2c(c1)OCCN2Cc1ccc(-c2ccccc2C(=O)O)cc1)c1cccc(OC(F)(F)F)c1 [Example 85, (S)-4′-((7-((1-(3-(trifluoromethoxy)phenyl)ethyl)carbamoyl)-2H-benzo[b][1,4]oxazine-4(3H)-yl)methyl)-[1,1′-biphenyl]-2-carboxylic acid] | +++
17 | NC(=O)c1ccccc1-c1ccc(CN2CCOc3cc(C(=O)NCc4cccnc4)ccc32)cc1 [Example 97, 4-((2′-carbamoyl-[1,1′-biphenyl]-4-yl)methyl)-N-(pyridine-3-ylmethyl)-3,4-dihydro-2H-benzo[b][1,4]oxazine-7-carboxamide] | +
18 | NC(=O)c1ccccc1-c1ccc(CN2CCOc3cc(C(=O)NCc4ccncc4)ccc32)cc1 [Example 98, 4-((2′-carbamoyl-[1,1′-biphonyl]-4-yl)methyl)-N-(pyridine-4-ylmethyl)-3,4-dihydro-2H-benzo[b][1,4]oxazine-7-carboxamide] | +
19 | CC[C@H](NC(=O)c1ccc2c(c1)OCCN2Cc1ccc(-c2ccccc2C(=O)O)cc1)c1ccccc1 [Example 62, (S)-4′-((7-((1-phenylpropyl)carbamoyl)-2H-benzo[b][1,4]oxazine-4(3H)-yl)methyl)-[1,1′-biphenyl]-2-carboxylic acid] | +++
20 | O=C(NCc1ccc2c(c1)OCCO2)c1ccc2c(c1)CCCN2Cc1ccc(-c2ccccc2C(=O)O)cc1 [Example 30, 4′-((6-(((2,3-dihydrobenzo[b][1,4]dioxin-6-yl)methyl)carbamoyl)-3,4-dihydroquinoline-1(2H)-yl)methyl)-[1,1′-biphenyl]-2-carboxylic acid] | +++
21 | C[C@H](NC(=O)c1ccc2c(c1)CCCN2Cc1ccc(-c2ccccc2C(=O)O)cc1)c1cccc(C(F)(F)F)c1 [Example 19, (S)-4′-((6-((1-(3-(trifluoromethyl)phenyl)ethyl)carbamoyl)-3,4-dihydroquinoline-1(2H)-yl)methyl)-[1,1′-biphenyl]-2-carboxylic acid] | +++
22 | C[C@H](NC(=O)c1ccc2c(c1)CCCN2Cc1cccc(-c2ccccc2C(=O)O)c1F)c1ccc2ccccc2c1 [Example 129, (S)-2′-fluoro-3′-((6-((1-(naphthalene-2-yl)ethyl)carbamoyl)-3,4-dihydroquinoline-1(28)-yl)methyl)-[1,1′-biphenyl]-2-carboxylic acid] | ++++
